Source: patent US12209081B2 (Katholieke Universiteit Leuven, priority 2020, dated 2025)

biological target: mouse TRPM3α2 (mTRPM3) ion channel (Mus musculus (Mouse), UniProt J9SQF3); test: TRPM3 ion channel driven Ca2+ uptake, Fluo-4 AM assay, mTRPM3alpha2 overexpressing flip-in HEK293 cells stimulated with pregnenolone sulfate; format: cell-based; settings: PS 50 μM, cpds 300-399
How it was run: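 Read-out is Ca2+ influx via Fluo-4 AM fluorescence at 485/535 nm, taken right after seeding ~2000 cells/well onto compound with 50 μM PS. Inhibition computed from RFU between vehicle-stimulated and positive-control-inhibitor wells; cells were mTRPM3α2-overexpressing flip-in HEK293.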

Sequence of mouse TRPM3α2 (mTRPM3) ion channel (J9SQF3 other isoform, or with tags, fused parts or gaps): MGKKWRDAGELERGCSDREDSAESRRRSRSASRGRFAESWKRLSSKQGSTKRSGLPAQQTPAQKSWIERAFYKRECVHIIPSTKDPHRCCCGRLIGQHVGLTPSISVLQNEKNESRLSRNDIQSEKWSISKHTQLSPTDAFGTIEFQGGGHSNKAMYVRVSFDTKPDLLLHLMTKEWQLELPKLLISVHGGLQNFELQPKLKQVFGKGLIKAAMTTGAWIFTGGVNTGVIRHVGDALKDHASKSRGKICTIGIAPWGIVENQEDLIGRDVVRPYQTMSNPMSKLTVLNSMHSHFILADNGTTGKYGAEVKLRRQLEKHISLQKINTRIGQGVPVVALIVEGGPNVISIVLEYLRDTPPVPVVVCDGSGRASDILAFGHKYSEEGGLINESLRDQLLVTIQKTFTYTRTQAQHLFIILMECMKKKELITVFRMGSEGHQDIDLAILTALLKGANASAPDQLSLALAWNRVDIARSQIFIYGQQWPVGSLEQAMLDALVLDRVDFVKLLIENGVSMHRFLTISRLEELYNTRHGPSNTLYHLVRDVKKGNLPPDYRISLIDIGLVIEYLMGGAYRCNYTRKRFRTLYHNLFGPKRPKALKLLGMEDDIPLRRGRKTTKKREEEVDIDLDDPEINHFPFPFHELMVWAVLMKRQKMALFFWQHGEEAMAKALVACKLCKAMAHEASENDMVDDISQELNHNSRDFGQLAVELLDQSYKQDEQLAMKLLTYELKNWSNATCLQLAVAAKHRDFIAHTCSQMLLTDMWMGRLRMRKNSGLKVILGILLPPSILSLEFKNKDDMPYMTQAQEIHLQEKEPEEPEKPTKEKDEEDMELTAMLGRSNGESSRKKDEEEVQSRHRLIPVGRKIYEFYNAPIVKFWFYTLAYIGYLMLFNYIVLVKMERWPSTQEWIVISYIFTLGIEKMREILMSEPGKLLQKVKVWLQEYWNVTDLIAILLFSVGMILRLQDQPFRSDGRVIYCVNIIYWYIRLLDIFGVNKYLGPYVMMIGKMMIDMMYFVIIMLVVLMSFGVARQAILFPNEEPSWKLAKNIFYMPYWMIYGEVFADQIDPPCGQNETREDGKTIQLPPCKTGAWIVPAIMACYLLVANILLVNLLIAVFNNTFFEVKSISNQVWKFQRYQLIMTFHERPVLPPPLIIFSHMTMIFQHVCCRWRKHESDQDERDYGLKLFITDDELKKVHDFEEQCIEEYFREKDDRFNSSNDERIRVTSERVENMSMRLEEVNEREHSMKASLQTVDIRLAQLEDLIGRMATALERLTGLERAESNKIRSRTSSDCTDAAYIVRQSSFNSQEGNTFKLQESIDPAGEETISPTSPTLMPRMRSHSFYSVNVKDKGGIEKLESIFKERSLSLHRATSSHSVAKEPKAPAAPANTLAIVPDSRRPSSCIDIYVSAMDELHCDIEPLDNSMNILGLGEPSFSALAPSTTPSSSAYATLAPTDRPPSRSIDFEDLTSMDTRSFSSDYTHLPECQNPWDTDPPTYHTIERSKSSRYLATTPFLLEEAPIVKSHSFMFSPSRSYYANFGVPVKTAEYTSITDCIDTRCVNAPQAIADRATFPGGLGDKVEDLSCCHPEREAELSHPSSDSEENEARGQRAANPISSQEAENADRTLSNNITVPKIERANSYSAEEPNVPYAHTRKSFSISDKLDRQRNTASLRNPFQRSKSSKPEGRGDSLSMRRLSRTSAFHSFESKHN

| SMILES | IC50 [µM] |
| --- | --- |
| Cc1ncsc1COc1ccc2oc(C)c(C(=O)N[C@H](C(N)=O)[C@@H](C)O)c2c1 [compound 378, N-((2S,3R)-1-amino-3-hydroxy-1-oxobutan-2-yl)-2-methyl-5-((4-methylthiazol-5-yl)methoxy)benzofuran-3-carboxamide] | < 1 |
| Cc1oc2ccc(OCc3cccnc3N3CCC3)cc2c1C(=O)NC1(CO)CCOCC1 [compound 337, 5-((2-(azetidin-1-yl)pyridin-3-yl)methoxy)-N-(4-(hydroxymethyl)tetrahydro-2H-pyran-4-yl)-2-methylbenzofuran-3-carboxamide] | < 1 |
| Cc1nc(C)c(COc2ccc3oc(C)c(C(=O)N[C@H](C(N)=O)[C@@H](C)O)c3c2)s1 [compound 382, N-((2S,3R)-1-amino-3-hydroxy-1-oxobutan-2-yl)-5-((2,4-dimethylthiazol-5-yl)methoxy)-2-methylbenzofuran-3-carboxamide] | < 1 |
| Cc1oc2ccc(OCc3cccnc3OC(F)F)cc2c1C(=O)NC1(CO)CCOCC1 [compound 339, 5-((2-(difluoromethoxy)pyridin-3-yl)methoxy)-N-(4-(hydroxymethyl)tetrahydro-2H-pyran-4-yl) -2-methylbenzofuran-3-carboxamide] | < 1 |
| O=C(NC1CCNCC1(F)F)c1c(C2CC2)oc2ccc(OCc3cccnc3C(F)(F)F)cc12 (single isomer, unassigned) [cpd 313-En 2] | 1 to 20 |

same assay, conditions: PS (50 μM) stimulated, cpd 001-199

| SMILES | IC50 [µM] |
| --- | --- |
| Cc1oc2ccc(OCc3cncs3)cc2c1C(=O)N[C@H]1CCNC1 [compound 024, (S)-2-methyl-N-(pyrrolidin-3-yl)-5-(thiazol-5-ylmethoxy)benzofuran-3-carboxamide] | < 1 |
| Cc1cccc(COc2ccc3oc(C)c(C(=O)N[C@H]4CCNC4)c3c2)n1 [compound 029, (S)-2-methyl-5-((6-methylpyridin-2-yl)methoxy)-N-(pyrrolidin-3-yl)benzofuran-3-carboxamide] | < 1 |
| Cc1ncsc1COc1ccc2oc(C)c(C(=O)NC3(CCO)CCOC3)c2c1 (single isomer, unassigned) [121-En 1, N-(3-(2-hydroxyethyl)tetrahydrofuran-3-yl)-2-methyl-5-((4-methylthiazol-5-yl)methoxy)benzo-furan-3-carboxamide] | < 1 |
| Cc1oc2ccc(OCc3ccsc3)cc2c1C(=O)NC1CCNC1=O (stereo not shown) [compound 035, 2-methyl-N-(2-oxopyrrolidin-3-yl) -5-(thiophen-3-ylmethoxy)benzofuran-3-carboxamide] | < 1 |
| Cc1oc2ccc(OCc3cccnc3C(F)(F)F)cc2c1C(=O)NC1CCN(CCO)C1=O (single isomer, unassigned) [120-En 1, N-(1-(2-hydroxyethyl)-2-oxopyrrolidin-3-yl)-2-methyl-5-((2 (trifluoromethyl)pyridin-3-yl)methoxy)benzofuran-3-carboxamide] | < 1 |
| Cc1oc2ccc(OCc3cccc(N(C)C)n3)cc2c1C(=O)NC1CCNCC1(F)F (stereo not shown) [compound 071, N-(3,3-difluoropiperidin-4-yl)-5-((6-(dimethylamino)pyridin-2-yl)methoxy)-2-methylbenzofuran-3-carboxamide] | < 1 |
| Cc1ncsc1COc1ccc2oc(C)c(C(=O)NC3(CO)CCOCC3)c2c1C#N [compound 193] | > 20 |
| Cc1ncsc1COc1ccc2oc(C)c(C(=O)NC3CNCCC3(F)F)c2c1 (single isomer, unassigned) [cpd 103-En 1] | < 1 |
| Cc1oc2ccc(OCc3cccnc3C(F)(F)F)cc2c1C(=O)NC1CNCCC1(F)F (single isomer, unassigned) [cpd 111-En 1] | < 1 |
| Cc1oc2ccc(OCc3ccc4nccn4c3)cc2c1C(=O)NC1CCNCC1(F)F (stereo not shown) [compound 070, N-(3,3-difluoropiperidin-4-yl)-5-(imidazo[1,2-a]pyridin-6-ylmethoxy)-2-methylbenzofuran-3-carboxamide] | < 1 |
| Cc1ncsc1COc1cc2c(C(=O)NC3(CO)CCOCC3)c(C)oc2cc1Cl [compound 174, 6-chloro-N-(4-(hydroxymethyl)tetrahydro-2H-pyran-4-yl)-2-methyl-5-((4-methylthiazol-5-yl) -methoxy)benzofuran-3-carboxamide] | < 1 |

same assay, conditions: PS (50 μM) stimulated, cpds. 400-499

| SMILES | IC50 [µM] |
| --- | --- |
| Cc1ncc(COc2ccc3oc(C)c(C(=O)NC(C)CO)c3c2)s1 (single isomer, unassigned) [cpd 490-En 1] | < 1 |
| Cc1ncsc1COc1ccc2oc(C)c(C(=O)NC(CO)CN(C)C)c2c1 (single isomer, unassigned) [413-En 1, N-(1-(dimethylamino)-3-hydroxypropan-2-yl)-2-methyl-5-((4-methylthiazol-5-yl)methoxy)benzofuran-3-carboxamide] | < 1 |
| Cc1oc2ccc(OCc3cccnc3O)cc2c1C(=O)N[C@@H](C)CO [compound 494, (S)-N-(1-hydroxypropan-2-yl)-5-((2-hydroxypyridin-3-yl)methoxy)-2-methylbenzofuran-3-carboxamide] | < 1 |
| Cc1ncc(COc2ccc3oc(C)c(C(=O)NCC(C)(F)F)c3c2)s1 [compound 499, N-(2,2-difluoropropyl)-2-methyl-5-((2-methylthiazol-5-yl)methoxy)benzofuran-3-carboxamide] | < 1 |
| Cc1ncc(COc2ccc3oc(C)c(C(=O)NC4(C(N)=O)CCC4)c3c2)s1 [compound 471, N-(1-carbamoylcyclobutyl)-2-methyl-5-((2-methylthiazol-5-yl)methoxy)benzofuran-3-carboxamide] | < 1 |

same assay, conditions: PS (50 μM) stimulated, cpds. 500-599

| SMILES | IC50 [µM] |
| --- | --- |
| COc1ncccc1COc1ccc2oc(C)c(C(=O)NC3CCNCC3(F)F)c2c1 (single isomer, unassigned) [cpd 565-En 2] | < 1 |
| COc1ncccc1COc1ccc2oc(C)c(C(=O)NC3CCNCC3(F)F)c2c1 (single isomer, unassigned) [cpd 565-En 1] | < 1 |
| Cc1nccc(COc2ccc3oc(C)c(C(=O)NC4CCNCC4(F)F)c3c2)n1 (single isomer, unassigned) [cpd 548-En 2] | > 20 |
| Cc1oc2ccc(OCc3nccs3)cc2c1C(=O)NC1CCNCC1(F)F (single isomer, unassigned) [cpd 560-En 2] | < 1 |
| Cc1ncsc1COc1ccc2oc(C)c(C(=O)NCC(C)(F)F)c2c1 [compound 500, N-(2,2-difluoropropyl)-2-methyl-5-((4-methylthiazol-5-yl)methoxy)benzofuran-3-carboxamide] | < 1 |
| Cc1oc2ccc(OCc3cccnc3C(F)(F)F)cc2c1C(=O)NC1(CO)CCCOC1 (single isomer, unassigned) [cpd 531-En 1] | < 1 |
| Cc1nccc(COc2ccc3oc(C)c(C(=O)NC4CCNCC4(F)F)c3c2)n1 (single isomer, unassigned) [cpd 548-En 1] | 1 to 20 |

same assay, conditions: PS (50 μM) stimulated, cpds. 608-666

| SMILES | IC50 [µM] |
| --- | --- |
| Cc1ncsc1COc1ccc2oc(C)c(C(=O)NCC(F)(F)F)c2c1 [compound 666, 2-methyl-5-((4-methylthiazol-5-yl)methoxy)-N-(2,2,2-trifluoroethyl)benzofuran-3-carboxamide] | < 1 |
| COc1ncccc1COc1ccc2oc(C)c(C(=O)NC3CNCC3(F)F)c2c1 (stereo not shown) [compound 663, N-(4,4-difluoropyrrolidin-3-yl)-5-((2-methoxypyridin-3-yl)methoxy)-2-methylbenzofuran-3-carboxamide] | < 1 |
| Cc1oc2ccc(OCc3cccnc3)cc2c1C(=O)NC1(CO)CCOCC1 [compound 625, N-(4-(hydroxymethyl)tetrahydro-2H-pyran-4-yl)-2-methyl-5-(pyridin-3-ylmethoxy)benzofuran-3-carboxamide] | < 1 |
| Cc1oc2ccc(OCc3cccnc3C(F)(F)F)cc2c1C(=O)NC(C)(C)CCO [compound 651, N-(4-hydroxy-2-methylbutan-2-yl)-2-methyl-5-((2-(trifluoromethyl)pyridin-3-yl)methoxy)benzofuran-3-carboxamide] | < 1 |
| Cc1oc2ccc(OCc3cccnn3)cc2c1C(=O)NC1(CO)CCOCC1 [compound 624, N-(4-(hydroxymethyl)tetrahydro-2H-pyran-4-yl)-2-methyl-5-(pyridazin-3-ylmethoxy)benzofuran-3-carboxamide] | < 1 |
| Cc1oc2ccc(OCc3nccn3C)cc2c1C(=O)NC1CNCC1(F)F (single isomer, unassigned) [cpd 638-En 1] | < 1 |
| Cc1oc2ccc(OCc3ccnn3C)cc2c1C(=O)NC1CNCCC1(F)F (single isomer, unassigned) [cpd 636-En 1] | < 1 |

same assay, conditions: PS (50 μM) stimulated, cpds. 667-751

| SMILES | IC50 [µM] |
| --- | --- |
| Cc1ncc(COc2ccc3oc(C(F)F)c(C(=O)N[C@@H](CO)C(N)=O)c3c2)s1 [compound 745, (S)-N-(1-amino-3-hydroxy-1-oxopropan-2-yl)-2-(difluoromethyl)-5-((2-methylthiazol-5-yl)methoxy)benzofuran-3-carboxamide] | < 1 |
| Cc1oc2ccc(OCc3ncccn3)cc2c1C(=O)N[C@@H](CO)C(N)=O [compound 712, (S)-N-(1-Amino-3-hydroxy-1-oxopropan-2-yl)-2-methyl-5-(pyrimidin-2-ylmethoxy)benzofuran-3-carboxamide] | < 1 |
| Cc1oc2ccc(OCc3ccnn3CC3CC3)cc2c1C(=O)N[C@@H](CO)C(N)=O [compound 690, (S)-N-(1-amino-3-hydroxy-1-oxopropan-2-yl)-5-((1-(cyclopropylmethyl)-1H-pyrazol-5-yl)methoxy)-2-methylbenzofuran-3-carboxamide] | < 1 |
| Cc1ncc(COc2ccc3oc(C4CC4)c(C(=O)N[C@@H](CO)C(N)=O)c3c2)o1 [compound 751, (S)-N-(1-amino-3-hydroxy-1-oxopropan-2-yl)-2-cyclopropyl-5-((2-methyloxazol-5-yl)methoxy) benzofuran-3-carboxamide] | < 1 |
| Cc1oc2ccc(OCc3c(Cl)cnn3C(C)C)cc2c1C(=O)N[C@@H](CO)C(N)=O [compound 672, (S)-N-(1-amino-3-hydroxy-1-oxopropan-2-yl)-5-((4-chloro-1-isopropyl-1H-pyrazol-5-yl)methoxy)-2-methylbenzofuran-3-carboxamide] | < 1 |
